Reference: article PMC12136037, “Type II kinase inhibitors that target Parkinson’s disease–associated LRRK2” (Science Advances, 2025)
Where “and” joins values, the source holds several entries; their conditions need not be identical. Identical values can stand only once.

What was measured:
LRRK2^KW = molecular target: T1, LRRK2^KW (Homo sapiens, UniProt Q5S007); test: DSF thermal stabilization of LRRK2^KW; format: binding; settings: DSF, LRRK2^KW, 10 μM inhibitor
T1 construct: LRRK2 R1847 to E2527; His6-Z-tag (TEV cleavable) (N, cleaved yes); host or cells: Sf9 insect cells (baculovirus)
T1 sequence (Q5S007 1847-2527): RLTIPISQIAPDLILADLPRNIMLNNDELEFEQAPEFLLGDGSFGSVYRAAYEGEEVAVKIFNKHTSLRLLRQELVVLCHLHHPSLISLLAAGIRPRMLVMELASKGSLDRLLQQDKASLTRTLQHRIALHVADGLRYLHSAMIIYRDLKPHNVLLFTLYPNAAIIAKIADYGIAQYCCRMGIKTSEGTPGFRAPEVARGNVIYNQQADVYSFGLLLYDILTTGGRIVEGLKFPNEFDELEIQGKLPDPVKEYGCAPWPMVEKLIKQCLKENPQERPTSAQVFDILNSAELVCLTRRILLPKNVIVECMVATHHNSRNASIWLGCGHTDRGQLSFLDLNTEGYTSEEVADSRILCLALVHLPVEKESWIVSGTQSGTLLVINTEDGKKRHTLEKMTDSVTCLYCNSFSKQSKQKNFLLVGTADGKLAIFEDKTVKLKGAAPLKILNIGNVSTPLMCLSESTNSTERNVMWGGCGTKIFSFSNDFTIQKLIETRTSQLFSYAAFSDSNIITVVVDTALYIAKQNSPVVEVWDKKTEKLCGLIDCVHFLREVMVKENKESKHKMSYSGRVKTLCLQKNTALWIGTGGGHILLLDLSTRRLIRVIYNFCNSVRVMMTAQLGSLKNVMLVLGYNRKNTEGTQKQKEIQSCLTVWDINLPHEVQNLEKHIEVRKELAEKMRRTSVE
Protocol: To characterize binding between small molecules and LRRK2^KW, induced thermal stabilization was measured by DSF according to previously established protocols ([47]). In brief, LRRK2^KW was diluted to 4 μM in 20 mM Hepes (pH 7.4), 150 mM NaCl, 0.5 mM TCEP, 0.5% glycerol, 20 μM GDP, and 2.5 mM MgCl2, and SYPRO Orange was added (1:1000, MilliporeSigma). Inhibitor (10 μM) to be tested was added to a final sample volume of 20 μl per well of a 96-well plate (white, Starlab). […] The fluorescence was plotted against the temperature, and the melting point (Tm) was determined as the minimum of the first derivative relative to the control.

LRRK2^RCKW = molecular target: T2, LRRK2^RCKW (Homo sapiens, UniProt Q5S007); test: Biochemical LRRK2 activity assay (PhosphoSense, AssayQuant SOX peptide AQT0615); settings: for normalized response (LRRK2 activity): normalized to 0% (no kinase) and 100% (no inhibitor) control, two singlicate columns per compound
T2 construct: LRRK2 R1327 to E2527; His6-Z-tag (TEV cleavable) (N, cleaved yes); host or cells: Sf9 insect cells (baculovirus)
T2 sequence (Q5S007 1327-2527): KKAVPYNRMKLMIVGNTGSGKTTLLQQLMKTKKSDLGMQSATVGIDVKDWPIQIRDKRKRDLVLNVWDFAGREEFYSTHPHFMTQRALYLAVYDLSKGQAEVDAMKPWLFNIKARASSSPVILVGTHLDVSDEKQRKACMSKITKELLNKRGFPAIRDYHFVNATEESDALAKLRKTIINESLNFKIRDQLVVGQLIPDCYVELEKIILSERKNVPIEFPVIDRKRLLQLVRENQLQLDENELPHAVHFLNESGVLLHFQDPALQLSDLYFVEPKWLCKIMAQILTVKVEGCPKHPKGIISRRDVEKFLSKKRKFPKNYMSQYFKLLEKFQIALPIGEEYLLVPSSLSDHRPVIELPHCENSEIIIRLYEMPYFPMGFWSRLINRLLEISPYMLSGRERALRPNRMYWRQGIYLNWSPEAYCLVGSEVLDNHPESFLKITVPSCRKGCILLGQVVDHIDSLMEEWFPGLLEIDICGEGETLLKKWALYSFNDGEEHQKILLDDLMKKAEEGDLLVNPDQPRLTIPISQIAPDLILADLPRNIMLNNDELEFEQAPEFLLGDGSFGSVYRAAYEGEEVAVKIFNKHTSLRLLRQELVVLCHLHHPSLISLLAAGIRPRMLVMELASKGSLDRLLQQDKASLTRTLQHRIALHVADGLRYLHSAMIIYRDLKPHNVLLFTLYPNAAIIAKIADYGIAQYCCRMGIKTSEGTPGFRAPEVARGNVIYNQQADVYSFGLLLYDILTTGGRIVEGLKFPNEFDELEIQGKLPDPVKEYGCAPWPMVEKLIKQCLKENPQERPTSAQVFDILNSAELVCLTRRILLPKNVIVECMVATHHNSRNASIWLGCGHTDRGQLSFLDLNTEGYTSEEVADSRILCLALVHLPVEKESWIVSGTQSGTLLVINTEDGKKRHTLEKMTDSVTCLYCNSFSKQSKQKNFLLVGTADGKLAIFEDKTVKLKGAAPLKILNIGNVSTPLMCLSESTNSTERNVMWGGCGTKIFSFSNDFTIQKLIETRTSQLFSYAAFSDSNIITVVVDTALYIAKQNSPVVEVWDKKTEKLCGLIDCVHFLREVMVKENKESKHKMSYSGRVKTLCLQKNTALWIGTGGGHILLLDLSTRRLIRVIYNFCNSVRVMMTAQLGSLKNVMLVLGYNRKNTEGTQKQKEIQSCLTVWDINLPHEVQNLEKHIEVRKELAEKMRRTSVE
Protocol: Two wells per compound were used as 0% (without protein and compound) and 100% (without compound) control. […] The 0% control wells were filled with 10 μl of pure reaction buffer. With the ECHO, 5 nl of 100 mM ATP was pipetted into each well, the plates were centrifuged at 1500g for 2 min, and the reaction was incubated at room temperature for 4 hours. The fluorescence of the SOX-peptide after 360-nm excitation was measured at 487-nm emission with a PHERAstar plate reader (BMG Labtech). The IC50 values were calculated from a nonlinear regression of the log[inhibitor] versus the normalized response with GraphPad Prism 8 (www.graphpad.com/, RRID:SCR_002798).

[1] = LRRK2^RCKW kinase activity, in vitro

SMILES | ∆Tm (K) (LRRK2^KW) | IC50 (LRRK2^RCKW; Table S2, bound printed in μM under head IC50 [nM]) [µM] | normalized response (LRRK2 activity) (LRRK2^RCKW; log[inhibitor(mol)] -4.82391) | normalized response (LRRK2 activity) (LRRK2^RCKW; log[inhibitor(mol)] -5.12494) | normalized response (LRRK2 activity) (LRRK2^RCKW; log[inhibitor(mol)] -5.60206) | normalized response (LRRK2 activity) (LRRK2^RCKW; log[inhibitor(mol)] -6.30103) | normalized response (LRRK2 activity) (LRRK2^RCKW; log[inhibitor(mol)] -6.90309) | normalized response (LRRK2 activity) (LRRK2^RCKW; log[inhibitor(mol)] -7.30103) | normalized response (LRRK2 activity) (LRRK2^RCKW; log[inhibitor(mol)] -7.60206) | normalized response (LRRK2 activity) (LRRK2^RCKW; log[inhibitor(mol)] -8.09691) | normalized response (LRRK2 activity) (LRRK2^RCKW; log[inhibitor(mol)] -8.61979) | normalized response (LRRK2 activity) (LRRK2^RCKW; log[inhibitor(mol)] -9.09691) | normalized response (LRRK2 activity) (LRRK2^RCKW; log[inhibitor(mol)] -9.39794) | IC50 (LRRK2^RCKW; [1]) [µM]
O=C(Nc1ccc(F)cc1)C1(C(=O)Nc2cccc(-c3ccc4n[nH]cc4c3)c2)CC1 [Compound 47] | 3.0 | > 15 | 115.049% and 93.8598% | 99.0859% and 93.2217% | 93.6133% and 98.8538% | 94.4738% and 97.6114% | 97.3406% and 97.6501% | 98.4526% and 101.585% | 103.828% and 100.546% | 94.8702% and 94.0339% | 91.8535% and 95.7453% | 97.0119% and 90.234% | 103.089% and 99.1004% | 
Cc1ccc(-c2c[nH]c3ncnc(N4CCOCC4)c23)cc1NC(=O)C1(C(=O)Nc2ccc(F)cc2)CC1 [Compound 7] | 7.8 |  | 48.7254% and 32.1819% | 55.2664% and 57.3114% | 81.8607% and 85.9555% | 94.4496% and 98.762% | 100.265% and 101.228% | 105.467% and 108.576% | 105.158% and 64.9692% | 97.331% and 101.237% | 106.173% and 99.8401% | 141.905% and 102.383% | 109.403% and 105.477% | 10.5
COc1cc(C(=O)N2CCOCC2)c(F)cc1Nc1nc(N(C)C)c2c(-c3cccc(NC(=O)Nc4cc(C(C)(C)C)nn4-c4ccc(C)cc4)c3)c[nH]c2n1 [Compound 34] | 0.0 |  | 44.1151% and 42.1018% | 30.8718% and 33.6962% | 50.116% and 50.3008% | 30.7392% and 30.2826% | 79.3769% and 75.1697% | 94.0291% and 93.4725% | 99.2059% and 99.0146% | 90.4133% and 94.0334% | 94.5074% and 96.3707% | 98.4515% and 93.6442% | 99.1494% and 99.7973% | 2.82 ± 1.7
COc1cc(S(C)(=O)=O)ccc1Nc1nc(N(C)C)c2c(-c3cccc(NC(=O)Nc4cc(C(C)(C)C)nn4-c4ccc(C)cc4)c3)c[nH]c2n1 [Compound 33] | 1.0 |  |  |  |  |  |  | 124.559% and 124.399% | 116.776% and 118.915% | 103.198% and 104.843% | 103.872% and 98.2729% | 102.243% and 101.201% | 101.448% and 104.602% | 
Cn1cc(-c2c[nH]c3ncnc(N4CCOCC4)c23)cc1C#N [PF-360, reference compound] | 14.0 ± 0.7 |  | -6.35% and -14.8637% | -13.9757% and -14.0596% | -14.9079% and -13.9094% | -16.2775% and -13.8122% | -15.2172% and -15.9196% | -14.8814% and -10.0789% |  | -1.676% and 1.585% | 61.433% and 54.956% | 90.2569% and 81.7741% | 97.0785% and 81.4958% | 
